US20260242366A1, “STING AGONISTS CONTAINING HYDRAZIDE, HYDRAZINE, AND HYDROXAMIC ACID FUNCTIONAL GROUPS” (BioNTech SE, priority 2023, published 2026)
Where two headings read alike, the source gives them in different places.

How the values were obtained:
[1] = tested on: STING signaling (IRF and NFKB-pathway activation) in THP1 Dual Cells; assay: THP-1 assay (THP1 Dual reporter cells, IRF / NFkB pathway activation); assay type: cell-based; conditions: Homo sapiens; THP1 Dual cells, 24 h incubation, IRF pathway; read-out: THP-1 EC50 (IRF)
Method: THP1 Dual Cells™, were purchased from Invivogen (Cat. thpd-nfis), and used to determine the biological activity of the compounds on a molecular level and to determine downstream activation of STING signaling (IRF and NFKB-pathway activation). Briefly, cultured cells were seeded on the day of the experiment with a density of 1×10^5 cells per well (96-well format in RPMI supplemented with 25 mM HEPES, 10% heat inactivated FCS,). A serial dilution of the compounds was prepared and added to the cells for a total incubation time of 24 hours. The test items were tested in 8 concentrations to determine a dose-dependent activation of the NFKB and the IRF pathway. After 24 h cells were centrifuged and supernatants harvested for the detection of secreted alkaline phosphatase (measured by QUANTI-Blue™ detection solution; Cat. rep-qbs Invivogen) or lucia luciferase (measured by QUANTI-Luc™ reagent; Cat. rep-qlc1, Invivogen), respectively. The read outs were be performed according to the manufacturer's instructions. EC50 values were calculated using GraphPad Prism 9.

[2] = tested on: PBMCs from healthy donors; assay: PBMC assay, dose-dependent cytokine induction; assay type: cell-based; conditions: Homo sapiens, 24 h
Method: Compounds I-A to IV were additionally tested on PBMCs from healthy donors to determine the dose-dependent cytokine induction. PBMCs from buffy coats were thawed on the day of the experiment and seeded with a density of 5×10^5 cells per well (96-well format, RPMI with 5% Human Serum+1% MEM Non-Essential Amino Acids+1% Sodium Pyruvate). In line with the experiment above, a serial dilution of the compounds was prepared and added to the cells for 24 hours. On the next days, cells were centrifuged and supernatants harvested for a cytokine readout based on a multiplex assay kit from mesoscale discovery (customized multiplex panel for the cytokines: IFNα2a, IFNβ, TNFα and IL6). Impact on cell viability was determined by CellTiter Glo2.0 from promega (Cat. G9241). Both experimental read outs were performed according to the manufacturer's instructions.

[3] = molecular target: T1, human STING (Homo sapiens, UniProt Q86WV6); assay: Affinity measurement assay (Biacore T200 SPR); conditions: biotinylated human STING, 25° C., 1:1 binding model, read-out: Affinity (Kd) rhSTING
T1 construct: fused on or other part: His tag; chemically biotinylated (Sulfo-NHS-LC-Biotin) for capture on the chip
Method: T7 Shuffle E. coli cells, transformed with an expression vector encoding either a truncated version of human or murine His-tagged STING, were cultivated overnight in 50 mL LB media. 200 mL of LB media were inoculated to an OD600 of 0.05 and cells were grown at 37° C. at 120 rpm until an OD600 of 0.5 was reached. Protein expression was induced using 1 mM IPTG and cells were further cultivated at 30° C. over night. Cells were harvested by centrifugation at 4000 rpm for 30 min at 4° C. and frozen at −80° C. Subsequently, cells were thawed and resuspended in 30 mL IMAC-Buffer A (10 mM HEPES, 50 mM NaCl, 10 mM Imidazole, 250 mM L-Arginine, 10% Glycerol, pH 7.1) supplemented with 15 U/mL benzonase, 0.2 mg/mL MgCl2 and 0.1 mg/mL lysozyme. Lysis was performed by five sonification cycles with an amplitude of 25% and a pulse for 2 s, with 5 min incubation on ice between cycles. The lysate was centrifuged for 15 min at 16.000 g and the supernatant was filtrated (0.22 μm). Purification of STING was done using an ÄKTA prime chromatography system. A 1 mL His Trap excel column was equilibrated with IMAC-Buffer A before lysate was applied. After washing with multiple column volumes of buffer, STING was eluted using a linear gradient of IMAC-Buffer B (10 mM HEPES, 50 mM NaCl, 500 mM Imidazole, 250 mM L-Arginine, 10% Glycerol, pH 7.1). Elution fractions were analyzed by SDS-PAGE and STING containing fractions were mixed. Using the Äkta pure system in combination with a HiLoad Superdex 16/600 75 pg column, STING was further purified by preparative size-exclusion chromatography. Fractions were analyzed by SDS-PAGE and STING containing fractions were combined.
Purified proteins were biotinylated using EZ-Link Sulfo-NHS-LC-Biotin (Life Technologies GmbH) in ten-fold excess for 2 h on ice. The reaction was quenched by addition of 100 mM Tris pH8 and 1 h incubation on ice. Remaining biotin was removed by performing buffer exchange to PBS using Zeba Spin Desalting Columns, 7K MWCO, 0.5 mL (Thermo Fischer). Protein concentrations were determined using the Nanodrop system.
Affinity measurement of STING-binding compounds were performed using the Biacore T200 SPR system (GE Healthcare, Biacore T200 control Software 3.2). Therefore, the Biotin CAPture kit, series S (Cytiva Europe, Cat.no. 28920234) was utilized. A freshly docked Biotin CAPture chip was rehydrated overnight in the instrument (standby mode). The following day, the chip surface was conditioned three times with regeneration solution (6 M guanidine-HCl, 0.25 M NaOH) for 60 s at 10 μL/min on flow cell (FC) 1 and FC2. Subsequently, the Biotin CAPture reagent (Cytiva Europe, Cat.no. 29423383) was applied for 300 s at 2 μL/min on FC1 and FC2, followed by capturing of 100 nM biotinylated murine or 150 nM biotinylated human STING, respectively. […]

[4] = tested on: 4T1 cells; assay: Anti-tumoral efficacy in murine 4T1 breast cancer model; assay type: in vivo, Balb/c Rj mice
Method: The anti-tumoral efficacy of compound I-D was tested in a murine 4T1 breast cancer model. Balb/c Rj mice were injected subcutaneously with 1×10^5 4T1 cells. Three doses of compound I-D formulated in 5% Solutol in 2.5% glucose (31 nmol, 3.1 nmol and 0.31 nmol) or the vehicle control (5% Solutol in 2.5% glucose) were administered intratumorally at days 11, 16 and 21 after inoculation. Tumor size was monitored using BioVolume® (calculating the tumor size based on RGB, thermal and 3D model data) until day 21, when animals were sacrificed and tumor cytokines were analyzed compared to serum 3 h after final agonist injection. To evaluate the statistical significance of tumor volume reduction compared to the vehicle control, a 2way ANOVA test was used: *** p<0.0001.

[5] = IFNα in supernatant, read-out: PBMC EC50 (μM) for IFNα
[6] = IFNβ in supernatant, read-out: PBMC EC50 (μM) for IFNβ
[7] = tumor, 3 h after final agonist injection, day 21

T1 sequence (Q86WV6 153-340 limits assumed): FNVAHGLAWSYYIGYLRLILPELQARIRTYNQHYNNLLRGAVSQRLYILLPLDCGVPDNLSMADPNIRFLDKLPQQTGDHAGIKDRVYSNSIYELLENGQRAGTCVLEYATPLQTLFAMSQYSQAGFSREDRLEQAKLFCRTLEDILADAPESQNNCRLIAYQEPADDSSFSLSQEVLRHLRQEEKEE

EC50 [1] [nM]	Kd [3] [nM]	Structure (SMILES)	EC50 [2, 5] [µM]	EC50 [2, 6] [µM]	Tumor size (BioVolume) compared to vehicle control ([4]; 31, 3.1 and 0.31 nmol intratumorally at days 11, 16 and 21, until day 21)	IFNα level in the tumor compared to diABZI [4, 7]	IFNγ level in the tumor compared to diABZI [4, 7]
2740	0.959	CCn1nc(C)cc1C(=O)Nc1nc2cc(C(=O)NNC)cc(OC)c2n1C/C=C/Cn1c(NC(=O)c2cc(C)nn2CC)nc2cc(C(N)=O)cc(OCCCN3CCOCC3)c21 [II-B]	1.95	1.16	–	–	–
–	0.319	CCn1nc(C)cc1C(=O)Nc1nc2cc(C(N)=O)cc(OC)c2n1C/C=C/Cn1c(NC(=O)c2cc(C)nn2CC)nc2cc(C(=O)NN)cc(OCCCN3CCOCC3)c21 [III]	–	0.387	–	–	–
–	2.91	CCn1nc(C)cc1C(=O)Nc1nc2cc(C(=O)N(C)NC)cc(OC)c2n1C/C=C/Cn1c(NC(=O)c2cc(C)nn2CC)nc2cc(C(N)=O)cc(OCCCN3CCOCC3)c21 [II-D]	1.14	0.821	–	–	–
–	0.00413	CCn1nc(C)cc1C(=O)Nc1nc2cc(C(N)=O)cc(OC)c2n1C/C=C/Cn1c(NC(=O)c2cc(C)nn2CC)nc2cc(C(N)=O)cc(OCCCC(=O)N(C)NC)c21 [I-D]	0.26	0.265	marked decrease in tumor size	higher levels	higher levels
